Consider two compounds from ChEMBL document CHEMBL1159174, “Spiroketal glycomimetics: the synthesis of a conformationally restrained Sialyl Lewis X mimic” (Bioorg Med Chem Lett, 1995).

The target in experiment [1] is T1, E-selectin (Homo sapiens, UniProt P16581).
T1 sequence (P16581 whole entry): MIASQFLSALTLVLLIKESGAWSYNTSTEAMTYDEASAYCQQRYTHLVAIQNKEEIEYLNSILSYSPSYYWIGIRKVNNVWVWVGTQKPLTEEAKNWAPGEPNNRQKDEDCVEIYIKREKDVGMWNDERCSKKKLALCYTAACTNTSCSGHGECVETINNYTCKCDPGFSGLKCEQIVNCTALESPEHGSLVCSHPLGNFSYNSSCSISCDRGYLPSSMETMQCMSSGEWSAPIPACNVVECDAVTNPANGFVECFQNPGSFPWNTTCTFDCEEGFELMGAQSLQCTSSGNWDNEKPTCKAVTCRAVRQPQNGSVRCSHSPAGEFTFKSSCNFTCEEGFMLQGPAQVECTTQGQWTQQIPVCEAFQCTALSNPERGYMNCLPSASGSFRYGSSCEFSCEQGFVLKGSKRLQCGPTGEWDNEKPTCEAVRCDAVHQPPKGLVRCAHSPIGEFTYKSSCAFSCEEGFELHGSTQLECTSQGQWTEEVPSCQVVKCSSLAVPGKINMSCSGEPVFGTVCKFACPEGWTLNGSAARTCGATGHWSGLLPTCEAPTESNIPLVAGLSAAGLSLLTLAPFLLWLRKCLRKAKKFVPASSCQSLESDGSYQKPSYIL
Put plainly: Affinity of compound to Selectin E was determined.

Experiment [2] concerns the target T1, E-selectin. Put plainly: Ability to inhibit the binding to Selectin E immobilized on SPA beads of radiolabeled HL-60 cell membrane was determined. It is filed as cell membranes.
In experiment [3] the target is T2, E-selectin (Homo sapiens) (UniProt P16581).
T2 sequence (whole entry): T1 sequence (P16581 whole entry)
Put plainly: Ability to inhibit the binding to Selectin E immobilized on SPA beads of radiolabeled HL-60 cell membrane was determined at concentration of 10 mM. It is filed as cell membranes.

As a reminder, the Kd is a measure of binding affinity in units of concentration. Read a low Kd as higher affinity. The term IC50 denotes the concentration that inhibits the measured activity by half. A higher IC50 goes with lower potency. Compound `CC(=O)N[C@H]1[C@H]([C@H](O)[C@H](O)CO)O[C@@](O[C@H]2[C@@H](O)[C@@H](CO)O[C@@H](O[C@@H]([C@H](O[C@@H]3O[C@@H](C)[C@@H](O)[C@@H](O)[C@@H]3O)[C@H](C=O)NC(C)=O)[C@H](O)CO)[C@@H]2O)(C(=O)O)C[C@@H]1O` [SIALYL LEWIS X] returned a Kd at E-selectin [1] of 1000 µM. At E-selectin [2], the IC50 was determined as 300 µM.

The inhibition is how much of the control response was suppressed. `CC(=O)NC1C(O)CC(OC2CCO[C@]3(CCC(OC4OC(C)C(O)C(O)C4O)CO3)C2)(C(=O)O)OC1[C@H](O)[C@H](O)CO` (stereo partly drawn): the inhibition in experiment [3] came out at 35%.
